The values below come from US7714017B2, “Carboxylic acid peri-substituted bicyclics for occlusive artery disease” (Decode Genetics, EHF, priority 2004, dated 2010).

SMILES strings stand for the structures.

This assay has as its target T1, prostanoid EP3 receptors (Homo sapiens, UniProt P43115).
T1 sequence (P43115 1-390): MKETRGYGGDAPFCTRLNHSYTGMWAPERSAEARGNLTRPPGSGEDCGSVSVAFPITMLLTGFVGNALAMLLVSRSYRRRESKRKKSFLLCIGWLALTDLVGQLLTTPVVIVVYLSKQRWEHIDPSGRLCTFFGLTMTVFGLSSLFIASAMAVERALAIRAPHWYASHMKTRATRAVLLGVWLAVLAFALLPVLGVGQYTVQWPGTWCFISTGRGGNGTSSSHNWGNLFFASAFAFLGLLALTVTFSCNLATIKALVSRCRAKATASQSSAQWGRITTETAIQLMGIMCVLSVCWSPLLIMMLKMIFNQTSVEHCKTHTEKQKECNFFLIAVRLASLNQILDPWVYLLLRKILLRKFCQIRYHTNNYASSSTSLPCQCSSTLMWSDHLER
Description: binding on prostanoid EP3 receptors (method of Abramovitz et al.). To be noted: Chart 1, read-out: Activity (EP3 receptor binding IC50 class). The method, then:
The compounds of the invention were assayed for their binding on prostanoid EP3 receptors according to the method of Abramovitz et al. [Bioch. Biophys. Acta, 1473, 285-293 (2000)]. […] Compounds with IC50<1 μM are shown as +++; compounds with IC50 1-10 μM are shown as ++; and compounds with IC50>10 μM are shown as +.
The compounds of the invention were assayed for their binding on prostanoid EP3 receptors according to the method of Abramovitz et al. [Bioch. Biophys. Acta. 1473, 285-293 (2000)]. […] Compounds with IC50<1 μM are shown as +++; compounds with IC50 1-10 μM are shown as ++; and compounds with IC50>10 μM are shown as +.
As to `O=C(O)COc1cccc2oc(=O)n(Cc3ccc4ccccc4c3)c12` [Compound A04, (3-Naphthalen-2-ylmethyl-2-oxo-2,3-dihydro-benzooxazol-4-yloxy)-acetic acid], the IC50 lay within 1000 to 10000 nM. `O=C(O)COc1cccc2ncn(Cc3ccc4ccccc4c3)c12` [Compound A22, (3-Naphthalen-2-ylmethyl-3H-benzoimidazol-4-yloxy)-acetic acid]: the IC50 is greater than 10000 nM.

For the molecule `CC12CCCC(/C=C/C(=O)O)=C1N(Cc1cccc(F)c1)C(=O)C2` (stereo not drawn) [Compound A27, (E)-3-[1-(3-Fluoro-benzyl)-3a-methyl-2-oxo-2,3,3a,4,5,6-hexahydro-1H-indol-7-yl]-acrylic acid], the IC50 was less than 1000 nM. To `O=C(O)/C=C/c1cccc2c1N(Cc1ccc(Cl)cc1Cl)C(=O)C2(CO)CO` [Compound A62, (E)-3-[1-(2,4-Dichloro-benzyl)-3,3-bis-hydroxymethyl-2-oxo-2,3-dihydro-1H-indol-7-yl]-acrylic acid] belongs less than 1000 nM. The figure for `CC12CCCC(/C=C/C(=O)O)=C1N(Cc1ccc3ccccc3c1)C(=O)C2` (stereo not drawn) [Compound A24, (E)-3-(3a-Methyl-1-naphthalen-2-ylmethyl-2-oxo-2,3,3a,4,5,6-hexahydro-1H-indol-7-yl)-acrylic acid] is 1000 to 10000 nM; for `Cn1cc(/C=C/C(=O)O)c2c(Oc3ccc(Cl)c(Cl)c3)cccc21` [Compound A39, (E)-3-[4-(3,4-Dichloro-phenoxy)-1-methyl-1H-indol-3-yl]-acrylic acid] it is 1000 to 10000 nM; for `O=C(O)CCc1cccc2ccn(Cc3ccc4ccccc4c3)c12` [Compound A58, 3-(1-Naphthalen-2-ylmethyl-1H-indol-7-yl)-propionic acid] it is less than 1000 nM. Take `O=C(O)C=Cc1cccc2c1N(Cc1ccc(Cl)cc1Cl)C(=O)C21OCCO1` [Compound A16]: the 50% inhibitory concentration (IC50) is less than 1000 nM.

Consider `CC12CCCC(CCC(=O)O)=C1N(Cc1ccc(F)c(F)c1)C(=O)C2` (stereo not drawn) [Compound A50, 3-[1-(3,4-Difluoro-benzyl)-3a-methyl-2-oxo-2,3,3a,4,5,6-hexahydro-1H-indol-7-yl]-propionic acid], for which the IC50 lay within 1000 to 10000 nM.

As to `Cn1cc(/C=C/C(=O)O)c2c(Oc3ccc(Cl)cc3F)cccc21` [Compound A45, (E)-3-[4-(4-Chloro-2-fluoro-phenoxy)-1-methyl-1H-indol-3-yl]-acrylic acid], the concentration for half-maximal inhibition (IC50) is less than 1000 nM. To `O=C(O)COc1cccc2ncn(Cc3ccc(Cl)cc3Cl)c12` [Compound A21, [3-(2,4-Dichloro-benzyl)-3H-benzoimidazol-4-yloxy]-acetic acid] belongs less than 1000 nM; to `O=C(O)COc1cccc2oc(=O)n(Cc3ccc4c(c3)OCO4)c12` [Compound A05, (3-Benzo[1,3]dioxol-5-ylmethyl-2-oxo-2,3-dihydro-benzooxazol-4-yloxy)-acetic acid], 1000 to 10000 nM. For `Cn1cc(/C=C/C(=O)O)c2c(Oc3ccc(Cl)cc3)cccc21` [Compound A41, (E)-3-[4-(4-Chloro-phenoxy)-1-methyl-1H-indol-3-yl]-acrylic acid], the IC50 was 1000 to 10000 nM.

For the molecule `CN(C)Cc1cn(Cc2ccc3ccccc3c2)c2c(/C=C/C(=O)O)cccc12` [Compound A55], the IC50 was 1000 to 10000 nM. To `CCOC(=O)C12CCCC(/C=C/C(=O)O)=C1N(Cc1ccc(Cl)cc1Cl)C(=O)C2` (stereo not drawn) [Compound A47, 7-((E)-2-Carboxy-vinyl)-1-(2,4-dichloro-benzyl)-2-oxo-1,2,3,4,5,6-hexahydro-indole-3a-carboxylic acid ethyl ester] belongs less than 1000 nM; to `CC(C)c1cn(Cc2ccc(Cl)cc2Cl)c2c(CCC(=O)O)cccc12` [Compound A14], 1000 to 10000 nM; to `CN1C(=O)C(C(=O)Nc2ccc(Cl)cc2Cl)c2c(/C=C/C(=O)O)cccc21` (stereo not drawn) [Compound A33, (E)-3-[3-(2,4-Dichloro-phenylcarbamoyl)-1-methyl-2-oxo-2,3-dihydro-1H-indol-4-yl]-acrylic acid], 1000 to 10000 nM. The figure for `Cc1cn(Cc2ccc(Cl)cc2Cl)c2c(/C=C/C(=O)O)cc(F)cc12` [Compound A31, (E)-3-[1-(2,4-dichloro-benzyl)-5-fluoro-3-methyl-1H-indol-7-yl]-acrylic acid] is less than 1000 nM; for `Cc1cn(Cc2ccc(Cl)cc2Cl)c2c(/C=C/C(=O)O)cccc12` [Compound A09, (E)-3-[1-(2,4-Dichloro-benzyl)-3-methyl-1H-indol-7-yl]-acrylic acid] it is less than 1000 nM; for `O=C(O)CCc1csc2ncc(C=Cc3ccc4ccccc4c3)n12` (mixture of isomers) [Compound A23, 3-[5-((E)-2-Naphthalen-2-yl-vinyl)-imidazo[2,1-b]thiazol-3-yl]-propionic acid] it is 1000 to 10000 nM. To `CC12CCCC(/C=C/C(=O)O)=C1N(Cc1ccc(Cl)cc1Cl)C(=O)C2` (stereo not drawn) [Compound A32, (E)-3-[1-(2,4-Dichloro-benzyl)-3a-methyl-2-oxo-2,3,3a,4,5,6-hexahydro-1H-indol-7-yl]-acrylic acid] belongs less than 1000 nM; to `O=C(O)/C=C/c1cccc2c1N(Cc1ccc(Cl)cc1Cl)C(=O)C2(F)F` [Compound A20, (E)-3-[1-(2,4-Dichloro-benzyl)-3,3-difluoro-2-oxo-2,3-dihydro-1H-indol-7-yl]-acrylic acid], 1000 to 10000 nM. As for `Cn1nc(NC(=O)c2ccc3ccccc3c2)c2c(/C=C/C(=O)O)cccc21` [Compound A26, (E)-3-{1-Methyl-3-[(naphthalene-2-carbonyl)-amino]-1H-indazol-4-yl}-acrylic acid], the IC50 lay in the range of 1000 to 10000 nM. To `O=Cc1cn(Cc2ccc(Cl)cc2Cl)c2c(/C=C/C(=O)O)cccc12` [Compound A11, (E)-3-[1-(2,4-Dichloro-benzyl)-3-formyl-1H-indol-7-yl]-acrylic acid] belongs less than 1000 nM; to `O=C(O)/C=C/c1cccc2c1N(Cc1ccc(Cl)cc1Cl)C(=O)C2=O` [Compound A17, (E)-3-[1-(2,4-Dichloro-benzyl)-2,3-dioxo-2,3-dihydro-1H-indol-7-yl]-acrylic acid], 1000 to 10000 nM. Take `O=C(O)/C=C/c1cccc2c1N(Cc1ccc(F)c(F)c1)C(=O)C2=O` [Compound A60, (E)-3-[1-(3,4-Difluoro-benzyl)-2,3-dioxo-2,3-dihydro-1H-indol-7-yl]-acrylic acid]: the IC50 lay within 1000 to 10000 nM.

Take `Cn1cc(/C=C/C(=O)O)c2c(Oc3ccc(F)cc3F)cccc21` [Compound A37, (E)-3-[4-(2,4-Difluoro-phenoxy)-1-methyl-1H-indol-3-yl]-acrylic acid]: the IC50 is less than 1000 nM.

One may read the IC50 as the concentration that gives 50% inhibition.
